Structures can show the parent of a compound that is named as a salt. Where two headings read alike, the source gives them in different places.
How the values were obtained:
HIV-1 = assay: microbe, parasite or virus in culture; conditions: read-out: HIV1 CEM: EC50 for inhibition of HIV-1 in CEM cells
Method: (§1) Cells were infected with HIV-1 as previously described [Balzarini et al. AIDS (1991), 5, 21–28]. Briefly, 5×10^5 cells per milliliter were infected with HIV-1 or HIV-2 at 100 CCID50 (50% cell culture infective dose) per milliliter of cell suspension. Then 100 μL of the infected cell suspension was transferred to microtiter plate wells and mixed with 100 μL of the appropriate dilutions of the test compounds. After 4 days giant cell formation was recorded microscopically in the HIV-infected cell cultures [CEM], and after 5 days the number of viable cells was determined by trypan blue staining of the HIV-infected cell cultures [MT4].
(§2) The data columns are, in order: • HIV1 MT4: EC50 in μM for inhibition of HIV-1 in MT4 cells. • HIV2 MT4: EC50 in μM for inhibition of HIV-2 in MT4 cells. • CC50 MT4: CC50 in μM for toxicity to MT-4 cells. • HIV1 CEM: EC50 in μM for inhibition of HIV-1 in CEM cells. • HIV2 CEM: EC50 in μM for inhibition of HIV-2 in CEM cells. • HIV2 CEM-TK-: EC50 in μM for inhibition of HIV-2 in CEM/TK^− cells. • CC50 CEM: CC50 in μM for toxicity to CEM cells. • EC50 MSV: EC50 in μM for inhibition of MSV • MCC MSV: Minimum cytotoxic concentration in MSV assay

HIV-2 [1] = assay: Inhibition of HIV-2 in CEM cells (giant cell formation); assay type: cell-based; conditions: read-out: HIV2 CEM: EC50 for inhibition of HIV-2 in CEM cells
Method: as §1, §2

HIV-2 [2] = assay: Inhibition of HIV-2 in CEM/TK- cells; assay type: cell-based
Method: as §1, §2

[3] = Table 6, mean of two or more repeat experiments
[4] = Table 6, mean of two or more repeat experiments, read-out: HIV2 CEM-TK-: EC50 for inhibition of HIV-2 in CEM/TK^− cells
[5] = CEM/TK- cells, HIV-2, read-out: HIV2 CEM-TK-: EC50 for inhibition of HIV-2 in CEM/TK- cells

Row | Compound | EC50 (HIV-1; [3]) [µM] | EC50 (HIV-2 [1]; [3]) [µM] | EC50 (HIV-2 [2]; [4]) [µM] | further results
1 | Cc1cn(C2C=CC(COP(=O)(NC(C)C(=O)OCC3CCCCC3)Oc3ccccc3)O2)c(=O)[nH]c1=O (stereo not drawn) [Compound 1189] | 0.04 |  |  | 
2 | Cc1cn([C@H]2C=C[C@@H](CO)O2)c(=O)[nH]c1=O [Compound 268, reference compound] | 0.24 | 1.2 | > 100 | 
3 | CCCCNP(=O)(OCC1OC(n2cc(C)c(=O)[nH]c2=O)CC1N=[N+]=[N-])Oc1ccccc1 (stereo not drawn) [Cpd 659] |  |  |  | EC50 (HIV-1; CEM cells, HIV-1): > 42 µM; EC50 (HIV-2 [1]; CEM cells, HIV-2): > 42 µM; EC50 (HIV-2 [2]; [5]): > 42 µM
4 | Cc1cn(C2C=CC(COP(=O)(O)NC(C(=O)O)C(C)C)O2)c(=O)[nH]c1=O (stereo not drawn) [Compound 1190, 2′,3′-dideoxy-2′,3′-didehydrothymidine 5′-(valinyl phosphate)] | 0.7 |  |  | 
5 | O=c1ccn([C@H]2C=C[C@@H](CO)O2)c(=O)[nH]1 [Compound 446, reference compound] | > 95 | > 95 | > 95 | 
6 | COC(=O)C(C)(C)NP(=O)(OCC1C=CC(n2cc(C)c(=O)[nH]c2=O)O1)Oc1ccccc1 (stereo not drawn) [Compound 1200, 2′,3′-Dideoxy-2′,3′-didehydrothymidine-5′-(phenylmethoxy-2-aminoisobutylryl) phosphate] | 0.12 |  |  | 
7 | Cc1cn([C@H]2C=C[C@@H](COP(=O)(O)NC(Cc3ccccc3)C(=O)O)O2)c(=O)[nH]c1=O (stereo partly drawn) [Compound 1187, 2′,3′-dideoxy-2′,3′-didehydrothymidine 5′-(phenylalaninyl phosphate)] | 3.5 |  |  | 
8 | COC(=O)C(C)NP(=O)(OCC1OC(n2ccc(=O)[nH]c2=O)CC1N=[N+]=[N-])Oc1ccccc1 (stereo not drawn) [Cpd 571] |  |  |  | EC50 (HIV-1; CEM cells, HIV-1): > 202 µM; EC50 (HIV-2 [1]; CEM cells, HIV-2): > 202 µM; EC50 (HIV-2 [2]; [5]): 117 µM
9 | CCCNP(=O)(OCC)OCC1C=CC(n2cc(C)c(=O)[nH]c2=O)O1 (stereo not drawn) [Compound 563] | > 268 | > 268 | > 268 | 
10 | CCCCNP(=O)(OCC1C=CC(n2cc(C)c(=O)[nH]c2=O)O1)OCC(Cl)(Cl)Cl (stereo not drawn) [Compound 402] | 118 | > 204 | 161 | 
11 | COC(=O)C(Cc1c[nH]c2ccccc12)NP(=O)(OC[C@@H]1C=C[C@H](n2cc(C)c(=O)[nH]c2=O)O1)Oc1ccccc1 (stereo partly drawn) [Compound 1215, 2′,3′-Dideoxy-2′,3′-didehydrothymidine-5′-(phenylmethoxytryptophanyl) phosphoramidate] | 4 |  |  | 
12 | COC(=O)C(NP(=O)(OCC1C=CC(n2cc(C)c(=O)[nH]c2=O)O1)OCC(Cl)(Cl)Cl)C(C)C (stereo not drawn) [Compound 322] | 29 | 71 | 59 | 
13 | CCNP(=O)(OCC1C=CC(n2cc(C)c(=O)[nH]c2=O)O1)OCC(Cl)(Cl)Cl (stereo not drawn) [Compound 403] | > 216 | > 216 | > 218 | 
14 | [N-]=[N+]=NC1CC(n2ccc(=O)[nH]c2=O)OC1CO (stereo not drawn) [Cpd 569] |  |  |  | EC50 (HIV-1; CEM cells, HIV-1): > 400 µM; EC50 (HIV-2 [1]; CEM cells, HIV-2): > 400 µM; EC50 (HIV-2 [2]; [5]): > 400 µM
15 | CC[C@H](C)[C@H](NP(=O)(OCC1C=CC(n2cc(C)c(=O)[nH]c2=O)O1)Oc1ccccc1)C(=O)OC (stereo partly drawn) [Compound 1186, 2′,3′-dideoxy-2′,3′-didehydrothymidino 5′-(phenylmethoxyisoleucinyl phosphate)] | 5 |  |  | 
16 | CCCCCOC(=O)C(C)NP(=O)(OCC1C=CC(n2cc(C)c(=O)[nH]c2=O)O1)Oc1ccccc1 (stereo not drawn) [Compound 1218] | < 0.08 |  |  | 
17 | COC(=O)C(CCSC)NP(=O)(OCC1C=CC(n2cc(C)c(=O)[nH]c2=O)O1)OCC(Cl)(Cl)Cl (stereo not drawn) [Compound 345] | 8 | 11 | 10 | 
18 | Cc1cn(C2C=CC(COP(=O)(O)OCC(Cl)(Cl)Cl)O2)c(=O)[nH]c1=O (stereo not drawn) [Compound 407] |  | 0.5 | 86 | 
19 | CCCCCCNP(=O)(OCC1OC(n2cc(C)c(=O)[nH]c2=O)CC1N=[N+]=[N-])Oc1ccccc1 (stereo not drawn) [Cpd 657] |  |  |  | EC50 (HIV-1; CEM cells, HIV-1): > 40 µM; EC50 (HIV-2 [1]; CEM cells, HIV-2): > 40 µM; EC50 (HIV-2 [2]; [5]): > 18 µM
20 | COC(=O)CCC(NP(=O)(OCC1C=CC(n2cc(C)c(=O)[nH]c2=O)O1)Oc1ccccc1)C(=O)OC (stereo not drawn) [Compound 1196, 2′,3′-Dideoxy-2′,3′-didehydrothymidine-5′-(phenyldimethoxyglutaminyl phosphoramidate] | 1.2 |  |  | 
21 | Cc1cn(C2C=CC(COP(=O)(Oc3ccccc3)N3CCCC3C(=O)O)O2)c(=O)[nH]c1=O (stereo not drawn) [Compound 1194, 2′,3′-dideoxy-2′,3′-didehydrothymidine 5′-(phenylprolinyl phosphate)] | 6 |  |  | 

Row | Compound | EC50 (HIV-1; [3]) [µM] | EC50 (HIV-2 [1]; [3]) [µM] | EC50 (HIV-2 [2]; [4]) [µM] | further results
22 | Cc1cn([C@H]2C=C[C@@H](COP(=O)(N[C@@H](C)C(=O)OCC(C)(C)C)Oc3ccccc3)O2)c(=O)[nH]c1=O (stereo partly drawn) [Compound 1219] | < 0.08 |  |  | 
23 | COC(=O)C[C@H](NP(=O)(OC[C@@H]1C=C[C@H](n2cc(C)c(=O)[nH]c2=O)O1)Oc1ccccc1)C(=O)OC (stereo partly drawn) [Compound 1214, 2′,3′-Dideoxy-2′,3′-didehydrothymidine-5′-(phenyldimethoxyasparaginyl) phosphoramidate] | 0.6 |  |  | 
24 | Cc1cn(C2C=CC(COP(=O)(NC(C)C(=O)OCCc3ccccc3)Oc3ccccc3)O2)c(=O)[nH]c1=O (stereo not drawn) [Compound 1220] | 0.7 |  |  | 
25 | CCCCCCCCCCCCNP(=O)(OCC1OC(n2cc(C)c(=O)[nH]c2=O)CC1N=[N+]=[N-])Oc1ccccc1 (stereo not drawn) [Cpd 661] |  |  |  | EC50 (HIV-1; CEM cells, HIV-1): > 7 µM; EC50 (HIV-2 [1]; CEM cells, HIV-2): > 7 µM; EC50 (HIV-2 [2]; [5]): > 7 µM
26 | Cc1cn(C2C=CC(COP(=O)(O)NC(CC(C)C)C(=O)O)O2)c(=O)[nH]c1=O (stereo not drawn) [Compound 1192, 2′,3′-dideoxy-2′,3′-didehydrothymidine 5′-(leucinyl phosphate)] | 1.4 |  |  | 
27 | COC(=O)C(C)NP(=O)(OCC1C=CC(n2ccc(=O)[nH]c2=O)O1)Oc1cccc(C(F)(F)F)c1 (stereo not drawn) [Compound 547] | > 3520 | > 7 | > 35 | 
28 | CCCOP(=O)(OCC1C=CC(n2cc(C)c(=O)[nH]c2=O)O1)OCC(Cl)(Cl)Cl (stereo not drawn) [Compound 404] | > 209 | > 209 | > 209 | 
29 | CCC(NP(=O)(OCC1C=CC(n2cc(C)c(=O)[nH]c2=O)O1)Oc1ccccc1)C(=O)OC (stereo not drawn) [Compound 1198, 2′,3′-Dideoxy-2′,3′-didehydrothymidine-5′-(phenylmethoxy-α-aminobutylryl) phosphate] | > 250 |  |  | 
30 | O=c1ccn(C2C=CC(COP(=O)(OCC(Cl)(Cl)Cl)OCC(Cl)(Cl)Cl)O2)c(=O)[nH]1 (stereo not drawn) [Compound 562] | > 36 | > 36 | > 36 | 
31 | CCCNP(=O)(OCC1C=CC(n2cc(C)c(=O)[nH]c2=O)O1)OCC(Cl)(Cl)Cl (stereo not drawn) [Compound 401] | > 210 | > 210 | > 210 | 
32 | CCCCNP(=O)(OCC1C=CC(n2cc(C)c(=O)[nH]c2=O)O1)OCC(F)(F)F (stereo not drawn) [Compound 504] | 73 | 116 | ≥ 226 | 
33 | Cc1cn([C@H]2C=C[C@@H](COP(=O)(O)OC(=O)CCCN)O2)c(=O)[nH]c1=O [Compound 1224, 2′,3′-Dideoxy-2′,3′-didehydrothymidine-5′(γ-aminobutylryl) phosphate ammonium salt] | 1 |  |  | 
34 | CCOP(=O)(OCC)OCC1C=CC(n2ccc(=O)[nH]c2=O)O1 (stereo not drawn) [Compound 551] | > 58 | > 58 | > 58 | 
35 | Cc1cn(C2C=CC(COP(=O)(NC(C)C(=O)Oc3ccc4ccccc4c3)Oc3ccccc3)O2)c(=O)[nH]c1=O (stereo not drawn) [Compound 1227] | < 0.08 |  |  | 
36 | COC(=O)CCCCCNP(=O)(OCC1C=CC(n2cc(C)c(=O)[nH]c2=O)O1)Oc1ccccc1 (stereo not drawn) [Compound 1199, 2′,3′-Dideoxy-2′,3′-didehydrothymidine-5′-(phenylmethoxy-6-aminocaproyl) phosphate] | > 250 |  |  | 
37 | Cc1cn(C2C=CC(CNP(=O)(OC(C)C)OC(C)C)O2)c(=O)[nH]c1=O (stereo not drawn) [Compound 479] | > 258 | > 258 | > 258 | 
38 | COC(=O)C(C)NP(=O)(OCC1CCC(n2cc(C)c(=O)[nH]c2=O)O1)Oc1ccccc1 (stereo not drawn) [Cpd 1225] |  |  |  | EC50 (HIV-1; CEM cells, HIV-1): 1.2 µM
39 | COC(=O)CCNP(=O)(OCC1C=CC(n2cc(C)c(=O)[nH]c2=O)O1)Oc1ccccc1 (stereo not drawn) [Compound 1197, 2′,3′-Dideoxy-2′,3′-didhydrothymidine-5′-(phenylmethoxy-B-alaninyl) phosphate] | > 250 |  |  | 
40 | Cc1cn(C2C=CC(COP(=O)(O)NCCC(=O)O)O2)c(=O)[nH]c1=O (stereo not drawn) [Compound 1216, 2′,3′-Dideoxy-2′,3′-didehydrothymidine-5′-(β-alaninyl) phosphate ammonium salt] | 0.7 |  |  | 
41 | Cc1cn(C2C=CC(COP(=O)(NC(C)C(=O)Oc3cccc4ccccc34)Oc3ccccc3)O2)c(=O)[nH]c1=O (stereo not drawn) [Compound 1226] | < 0.08 |  |  | 
42 | CCCCCC(=O)OP(=O)(O)OC[C@@H]1C=C[C@H](n2cc(C)c(=O)[nH]c2=O)O1 [Compound 1217, 2′,3′-Dideoxy-2′,3′-didehydrothymidine-5′-(caproyl) phosphate ammonium salt] | 1.4 |  |  | 

— patent US7018989B2, “Chemical compounds” (University College Cardiff Consultants, LTD, priority 1995, dated 2006)
